{
  "source": "patent US20220362340A1",
  "about": "“COMPOSITIONS AND USES THEREOF FOR TREATING IRRADIATION-INDUCED INTESTINAL DAMAGE” (UNIVERSITY OF PITTSBURGH-OF THE COMMONWEALTH SYSTEM OF …, priority 2019, published 2022)",
  "molecules": {"B1": {"name": "G-CSF: Granulocyte colony-stimulating factor polypeptide, irradiation mitigator (protein, listed as Homo sapiens)", "chain": "MAGPATQSPMKLMALQLLLWHSALWTVQEATPLGPASSLPQSFLLKCLEQVRKIQGDGAALQEKLVSECATYKLCHPEELVLLGHSLGIPWAPLSSCPSQALQLAGCLSQLHSGLFLYQGLLQALEGISPELGPTLDTLQLDVADFATTIWQQMEELGMAPALQPTQGAMPAFASAFQRRAGGVLVASHLQSFLEVSYRVLRHLAQP"}},
  "key": {"IL-22": {"test_system": "IL-22", "experiment": "Intestinal level of IL-22 after TBI", "assay_type": "in vivo, mouse", "conditions": "9.25 Gy TBI; treatment at 24 h; FIG. 17A"}, "[1]": {"test_system": "C57BL/6NTac mice irradiated to 9.25 Gy total body irradiation", "experiment": "Survival after 9.25 Gy total body irradiation (TBI)", "assay_type": "in vivo, mouse", "conditions": "9.25 Gy TBI; for 30 days survival: JP4-039 20 mg/kg I.M., G-CSF 4 mg/kg I.P. at 24 h, n=10, irradiated controls 20%; for survival at 30 days after TBI: treatment 24 hrs later, FIG. 7, irradiated control 10%", "text": "Mice and Animal Care. Female C57BL/6NTac (Taconic Biosciences, Wayne, Pa.) and C57BL/6 lgr5+ green fluorescent protein tagged (5-6) lgr5+ mice were housed 5 per cage and fed standard laboratory chow and deionized drinking water according to University of Pittsburgh IACUC regulations.\nIrradiation. Total body irradiation was delivered with a cesium-137 Gamma Cell irradiator with filters removed at a dose rate of […], beam flatness, homogeneity, and analysis of spectrum of gamma ray precise dosimetry were carried out. Mice were irradiated in a plexiglass pie plate that contains 12 sections. Five mice were placed in each pie plate. The mice were not placed in adjacent sections, but had one or two empty sections between mice so that the mice would not shield the other mice in the pie plate. Thermoluminescent (TLD) readings according to published methods. [Steinman J, et al., Improved total- body irradiation survival by delivery of two radiation mitigators that target distinct cell death pathways. Radiat Res 189(1): 68-83, 2018.]\nDose Response Curve of Number of Gavaged Lactobacillus-reuteri, or E. coli Producing IL-22 or IFN-β. Mice were irradiated to 9.25 Gy TBI, which took 13-14 minutes, and were then 24 h later gavaged with 100 μL saline solution containing Lactobacillus reuteri-IL-22, or E. coli-IL-22, or at 48 hrs post irradiation E. coli-IFN-β (based on the known time of requirement for IFN-β by lgr5+ cells at this time). All groups of mice received 100 μL saline, which contained varying numbers of bacteria ranging from 10^9, 10^8, 10^7, to 10^6 bacteria (n=10 animals per group).\nAdministration of Small Molecule Radiation Mitigator, IL-22 Protein, L. reuteri Lacking IL-22, or Gavaged Fecal Microbiome. As a control for probiotic mitigators, the GS-nitroxide, JP4-039 [Rwigema J -CM, et al., Two strategies for the development of mitochondrial-targeted small molecule radiation damage mitigators. Int J Radiat Oncol Biol Phys 80(3): 860-868, 2011], was prepared and administered according to published methods, I.M. at 20 mg/kg in 50 μL of 30% cyclodextrin aqueous [Epperly M W, et al., Evaluations of different formulations and routes for the delivery of the ionizing radiation mitigation GS-nitroxide (JP4-039). In Vivo 32: 1009-1023, 2018]. Cyclodextrin alone has no radiomitigative effect. […]\n10^9 L. reuteri lacking IL-22 was administered in 100 μl/saline. A similar number of bacteria from feces obtained from 30-day survivors of 9.25 Gy TBI was gavaged. Fecal microbiome transplant (FMT) was carried out by delivery by gavage in 100 μL saline; 10^9 bacteria from the feces of 30-day survivors of 9.25 Gy TBI of C57BL/6 female mice.\nC57BL/6NTac mice were irradiated to 9.25 Gy total body irradiation and gavaged with Lactobacillus reuteri-IL-22 or Lactobacillus reuteri harboring the empty vector control. […]\nTo determine whether successful radiation mitigation correlated with changes in the intestinal microbiome, groups of mice received 9.25 Gy total body irradiation (TBI) and subgroups treated with the small molecule radiation mitigator, JP4-039 (20 mg/kg in 50 microliters of 30% 2-hydroxypropyl-β-cyclodextrin I.M.), G-CSF (4 mg/kg I.P.), or both mitigators at 24 h after TBI. Fecal pellets were analyzed pre-irradiation, and at days 1, 3, 5, 7, 10, 14, 21, and 30 after irradiation. […]"}},
  "note": "Entries after “also recorded” stand apart in the source; their conditions may differ.",
  "data": [
    {"molecule": "CC(C)C[C@@H](/C=C/CC(=O)NC1CC(C)(C)N([O])C(C)(C)C1)NC(=O)OC(C)(C)C", "note": "[JP4-039]", "values": [
      {"measurement": "intestinal level of IL-22 after TBI", "setting": "IL-22", "value": "restored IL-22 levels"},
      {"measurement": "30 days survival", "setting": "[1]", "value": 50, "unit": "%"},
      {"measurement": "survival at 30 days after TBI", "setting": "[1]", "value": 70, "unit": "%"}
    ]},
    {"molecule": "IL-22 protein: recombinant IL-22 protein injected as control", "values": [
      {"measurement": "survival compared to irradiation only mice", "setting": "[1]; treatment 24 hr after, IL-22 protein 0.1 mg/kg I.M., FIG. 9", "value": "significantly increased survival; also recorded: significantly improved survival"},
      {"measurement": "survival at 30 days after TBI", "setting": "[1]", "value": 40, "unit": "%"}
    ]},
    {"molecule": "B1", "values": [
      {"measurement": "30 days survival", "setting": "[1]", "value": 70, "unit": "%"}
    ]}
  ]
}
